Numbers after ± are expanded uncertainties.
Legend:
[1] = xn = mol fraction of the nth substance listed; settings: 101 kPa, Liquid
[2] = excess molar enthalpy (molar enthalpy of mixing); xn = mol fraction of the nth substance listed; settings: 303.15 K, 101 kPa, Liquid, Calvet calorimetry

C[N+](=O)[O-] [nitromethane] + CCCCn1cc[n+](C)c1.F[B-](F)(F)F
mass density [kg/m3], [1]
Settings	293.15 K	303.15 K	313.15 K	323.15 K
x2 = 0	1137.98 ± 1.9	1124.39 ± 1.8	1110.68 ± 1.7	1096.88 ± 1.6
x2 = 0.0512	1154.27 ± 2	1142.08 ± 1.9	1129.84 ± 1.8	1117.57 ± 1.7
x2 = 0.0991	1164.29 ± 2	1152.98 ± 1.9	1141.66 ± 1.9	1130.32 ± 1.8
x2 = 0.1392	1170.56 ± 2	1159.82 ± 2	1149.08 ± 1.9	1138.35 ± 1.8
x2 = 0.2026	1178.15 ± 2	1168.09 ± 2	1158.06 ± 1.9	1148.05 ± 1.8
x2 = 0.2986	1186.08 ± 2	1176.78 ± 1.9	1167.52 ± 1.9	1158.31 ± 1.8
x2 = 0.3565	1189.62 ± 2	1180.67 ± 1.9	1171.76 ± 1.9	1162.9 ± 1.8
x2 = 0.3972	1191.64 ± 2	1182.9 ± 1.9	1174.2 ± 1.9	1165.55 ± 1.8
x2 = 0.4553	1194.13 ± 1.9	1185.65 ± 1.9	1177.21 ± 1.8	1168.83 ± 1.8
x2 = 0.5231	1196.42 ± 1.9	1188.18 ± 1.9	1179.99 ± 1.8	1171.87 ± 1.8
x2 = 0.5949	1198.48 ± 1.9	1190.48 ± 1.8	1182.53 ± 1.8	1174.65 ± 1.7
x2 = 0.6863	1200.57 ± 1.9	1192.82 ± 1.8	1185.11 ± 1.8	1177.48 ± 1.7
x2 = 0.8073	1202.6 ± 1.8	1195.13 ± 1.8	1187.69 ± 1.7	1180.33 ± 1.7
x2 = 0.8634	1203.37 ± 1.8	1196.01 ± 1.8	1188.69 ± 1.7	1181.43 ± 1.7

[2]
Settings	excess molar enthalpy [kJ/mol]
x2 = 0.0016	-0.007 ± 0.001
x2 = 0.0273	-0.092 ± 0.008
x2 = 0.0558	-0.182 ± 0.015
x2 = 0.1131	-0.287 ± 0.023
x2 = 0.202	-0.406 ± 0.033
x2 = 0.3621	-0.487 ± 0.039
x2 = 0.5067	-0.452 ± 0.036
x2 = 0.6037	-0.409 ± 0.033
x2 = 0.7226	-0.316 ± 0.025
x2 = 0.8827	-0.159 ± 0.013

CCCCn1cc[n+](C)c1.F[B-](F)(F)F [1-butyl-3-methylimidazolium tetrafluoroborate] + CCO
mass density [kg/m3], [1]
Settings	293.15 K	303.15 K	313.15 K	323.15 K
x1 = 0.0517	854.59 ± 0.74	846.27 ± 0.76	837.83 ± 0.79	829.27 ± 0.82
x1 = 0.0918	895.67 ± 0.62	887.54 ± 0.64	879.27 ± 0.67	870.9 ± 0.69
x1 = 0.1479	943.11 ± 0.48	935.12 ± 0.5	927.02 ± 0.52	918.84 ± 0.55
x1 = 0.1995	980.07 ± 0.4	972.15 ± 0.41	964.15 ± 0.43	956.11 ± 0.45
x1 = 0.2518	1011.33 ± 0.38	1003.46 ± 0.36	995.56 ± 0.36	987.64 ± 0.38
x1 = 0.3228	1046.79 ± 0.46	1039.01 ± 0.44	1031.22 ± 0.42	1023.46 ± 0.41
x1 = 0.4219	1085.81 ± 0.57	1078.14 ± 0.54	1070.51 ± 0.52	1062.91 ± 0.5
x1 = 0.5356	1120.88 ± 0.67	1113.35 ± 0.64	1105.88 ± 0.62	1098.46 ± 0.6
x1 = 0.6244	1142.66 ± 0.72	1135.23 ± 0.7	1127.86 ± 0.68	1120.54 ± 0.66
x1 = 0.709	1160.24 ± 0.77	1152.89 ± 0.75	1145.59 ± 0.73	1138.37 ± 0.7
x1 = 0.8295	1181.36 ± 0.83	1174.12 ± 0.81	1166.93 ± 0.79	1159.8 ± 0.77
x1 = 0.9327	1196.33 ± 0.88	1189.16 ± 0.85	1182.04 ± 0.83	1174.97 ± 0.81
x1 = 1	1204.93 ± 0.9	1197.83 ± 0.88	1190.74 ± 0.86	1183.72 ± 0.83

[2]
Settings	excess molar enthalpy [kJ/mol]
x1 = 0.0201	0.36 ± 0.029
x1 = 0.0573	0.852 ± 0.068
x1 = 0.1005	1.28 ± 0.1
x1 = 0.1962	1.96 ± 0.16
x1 = 0.3371	2.47 ± 0.2
x1 = 0.4225	2.61 ± 0.21
x1 = 0.5001	2.51 ± 0.2
x1 = 0.5874	2.28 ± 0.18
x1 = 0.6333	2.05 ± 0.17
x1 = 0.7422	1.67 ± 0.13
x1 = 0.8291	1.16 ± 0.093
x1 = 0.9257	0.625 ± 0.05

CCCCn1cc[n+](C)c1.F[B-](F)(F)F [1-butyl-3-methylimidazolium tetrafluoroborate] + C[N+](=O)[O-]
[1], x1 = 1
Settings	mass density [kg/m3]
293.15 K	1204.99 ± 1.8
303.15 K	1197.89 ± 1.8
313.15 K	1190.81 ± 1.7
323.15 K	1183.78 ± 1.7

CCO [ethanol] + CCCCn1cc[n+](C)c1.F[B-](F)(F)F
[1], x2 = 0
Settings	mass density [kg/m3]
293.15 K	789.38 ± 0.94
303.15 K	780.78 ± 0.96
313.15 K	772.04 ± 0.99
323.15 K	763.14 ± 1

CCO [ethanol] + CCCCn1cc[n+](C)c1.COS(=O)(=O)[O-]
[1], x2 = 0
Settings	mass density [kg/m3]
293.15 K	789.53 ± 0.94
303.15 K	780.94 ± 0.96
313.15 K	772.2 ± 0.99
323.15 K	763.28 ± 1

CCCCn1cc[n+](C)c1.COS(=O)(=O)[O-] [1-butyl-3-methylimidazolium methyl sulfate] + CCO
mass density [kg/m3], [1]
Settings	293.15 K	303.15 K	313.15 K	323.15 K
x1 = 0.0459	854.75 ± 0.74	846.48 ± 0.76	838.14 ± 0.79	829.69 ± 0.82
x1 = 0.0987	913.25 ± 0.56	905.23 ± 0.59	897.17 ± 0.61	889.06 ± 0.64
x1 = 0.142	952 ± 0.46	944.14 ± 0.48	936.26 ± 0.5	928.36 ± 0.52
x1 = 0.1905	988.2 ± 0.38	980.49 ± 0.4	972.79 ± 0.41	965.08 ± 0.43
x1 = 0.2357	1016.76 ± 0.39	1009.19 ± 0.38	1001.63 ± 0.36	994.07 ± 0.37
x1 = 0.2733	1037.27 ± 0.44	1029.8 ± 0.42	1022.32 ± 0.4	1014.88 ± 0.39
x1 = 0.3516	1073.29 ± 0.53	1065.97 ± 0.51	1058.67 ± 0.49	1051.41 ± 0.47
x1 = 0.4381	1104.9 ± 0.63	1097.71 ± 0.6	1090.57 ± 0.58	1083.48 ± 0.56
x1 = 0.5335	1132.61 ± 0.7	1125.56 ± 0.68	1118.55 ± 0.66	1111.6 ± 0.64
x1 = 0.5712	1141.96 ± 0.73	1134.95 ± 0.7	1127.99 ± 0.68	1121.09 ± 0.66
x1 = 0.6742	1163.83 ± 0.79	1156.95 ± 0.77	1150.1 ± 0.74	1143.31 ± 0.72
x1 = 0.7665	1180.16 ± 0.83	1173.37 ± 0.81	1166.61 ± 0.79	1159.9 ± 0.77
x1 = 0.8482	1192.27 ± 0.87	1185.55 ± 0.85	1178.85 ± 0.82	1172.21 ± 0.8
x1 = 0.9248	1202.35 ± 0.9	1195.72 ± 0.87	1189.08 ± 0.85	1182.49 ± 0.83
x1 = 1	1211.17 ± 0.92	1204.48 ± 0.9	1197.92 ± 0.88	1191.39 ± 0.86

[2]
Settings	excess molar enthalpy [kJ/mol]
x1 = 0.016	0.211 ± 0.017
x1 = 0.0338	0.368 ± 0.03
x1 = 0.1032	0.862 ± 0.069
x1 = 0.1897	1.16 ± 0.093
x1 = 0.2821	1.32 ± 0.11
x1 = 0.3379	1.28 ± 0.1
x1 = 0.5068	1.07 ± 0.086
x1 = 0.5946	0.958 ± 0.077
x1 = 0.7119	0.696 ± 0.056
x1 = 0.7889	0.51 ± 0.041
x1 = 0.9083	0.22 ± 0.018

CCCCn1cc[n+](C)c1.COS(=O)(=O)[O-] [1-butyl-3-methylimidazolium methyl sulfate] + C[N+](=O)[O-]
mass density [kg/m3], [1]
Settings	293.15 K	303.15 K	313.15 K	323.15 K
x1 = 0.0398	1152.79 ± 2	1140.52 ± 1.9	1128.19 ± 1.8	1115.81 ± 1.7
x1 = 0.1021	1167.13 ± 2	1156.18 ± 2	1145.2 ± 1.9	1134.22 ± 1.8
x1 = 0.1433	1174.03 ± 2.1	1163.71 ± 2	1153.39 ± 1.9	1143.09 ± 1.8
x1 = 0.1988	1181.04 ± 2.1	1171.38 ± 2	1161.73 ± 1.9	1152.11 ± 1.9
x1 = 0.2444	1185.56 ± 2	1176.34 ± 2	1167.13 ± 1.9	1157.97 ± 1.9
x1 = 0.2998	1189.98 ± 2	1181.18 ± 2	1172.41 ± 1.9	1163.68 ± 1.9
x1 = 0.3979	1195.81 ± 2	1187.57 ± 1.9	1179.37 ± 1.9	1171.23 ± 1.8
x1 = 0.4786	1199.41 ± 2	1191.53 ± 1.9	1183.69 ± 1.9	1175.91 ± 1.8
x1 = 0.5652	1202.31 ± 1.9	1194.73 ± 1.9	1187.19 ± 1.8	1179.71 ± 1.8
x1 = 0.7127	1206.24 ± 1.9	1199.08 ± 1.8	1191.95 ± 1.8	1184.88 ± 1.7
x1 = 0.8212	1208.19 ± 1.9	1201.28 ± 1.8	1194.38 ± 1.8	1187.53 ± 1.7
x1 = 0.8546	1208.81 ± 1.9	1201.97 ± 1.8	1195.14 ± 1.8	1188.36 ± 1.7
x1 = 1	1211.16 ± 1.8	1204.45 ± 1.8	1197.88 ± 1.8	1191.35 ± 1.7

[2]
Settings	excess molar enthalpy [kJ/mol]
x1 = 0.0804	-0.159 ± 0.013
x1 = 0.1617	-0.285 ± 0.023
x1 = 0.2832	-0.396 ± 0.032
x1 = 0.394	-0.466 ± 0.037
x1 = 0.4351	-0.451 ± 0.036
x1 = 0.5566	-0.418 ± 0.034
x1 = 0.6675	-0.37 ± 0.03
x1 = 0.7671	-0.273 ± 0.022
x1 = 0.8761	-0.13 ± 0.011

C[N+](=O)[O-] [nitromethane] + CCCCn1cc[n+](C)c1.COS(=O)(=O)[O-]
[1], x2 = 0
Settings	mass density [kg/m3]
293.15 K	1137.92 ± 1.9
303.15 K	1124.32 ± 1.8
313.15 K	1110.62 ± 1.7
323.15 K	1096.82 ± 1.6
